Measurements published in US10906894B2, “Compounds containing benzo[d][1,3]oxathiole, benzo[d][1,3]oxathiole 3-oxide or benzo[d][1,3]oxathiole 3,3-dioxide and methods/uses thereof as agonists of g protein-coupled receptor 119” (PRAMANA PHARMACEUTICALS INC., priority 2016, dated 2021).
Like-named read-outs stand apart in the source and are kept apart here. Values belong to the compound of their own block, whether it stands above or below them.

Biological target: T1, GPR119 (Homo sapiens, UniProt Q8TDV5)
T1 sequence (Q8TDV5 1-335): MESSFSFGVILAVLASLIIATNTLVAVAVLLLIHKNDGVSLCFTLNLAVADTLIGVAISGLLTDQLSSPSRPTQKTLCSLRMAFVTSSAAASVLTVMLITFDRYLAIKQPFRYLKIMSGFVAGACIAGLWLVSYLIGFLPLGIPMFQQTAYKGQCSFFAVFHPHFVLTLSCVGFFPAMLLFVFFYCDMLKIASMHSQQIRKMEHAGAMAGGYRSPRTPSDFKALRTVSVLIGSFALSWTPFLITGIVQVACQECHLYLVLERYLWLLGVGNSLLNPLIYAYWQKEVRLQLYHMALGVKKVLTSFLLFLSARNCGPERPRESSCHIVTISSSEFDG
Test: LANCE Ultra cAMP assay: stimulation of GPR119-mediated cAMP production in CHO cells stably expressing human GPR119 receptor
Format: cell-based
Conditions: for Emax: CHO
Description: The potency of GPR119 receptor agonists was assessed by measuring the stimulation of GPR119-mediated cAMP production with LANCE Ultra cAMP assay (Perkin Elmer, TRF0264) in CHO cells stably expressing human GPR119 receptor (Chantest, cat. #A633). CHO-GPR119 cells were cultured in DMEM/F12 medium supplemented with 10% FBS and 1% NEAA at 37° C., 5% CO2, aliquoted and frozen in liquid nitrogen.
(§1) For assay, cells were thawed in a water bath at 37° C., washed in Hank's Balanced Salt Solution (HBSS) and resuspended in Stimulation Buffer 1 (SB1) for 30 min: 5 mM HEPES, pH 7.2-7.4, 0.1% BSA in HBSS. […] The ULight-anti-cAMP antibody (Perkin Elmer, TRF0264) was added to the cell suspension making Mix [Cell suspension/4× ULight-anti-cAMP antibodies]. […] The assay plate was centrifuged 200 g, 5 sec.
Serial dilution (100×) of tested compounds were prepared in DMSO in the range of from 30 nM to 1 mM with half-log step in 384-well plates (Greiner, 781280) using Biomek 2000. 10 test concentrations in two repeats were prepared for each CRC. […] The assay plate was incubated 30 minutes at room temperature on a shaker, 250 rpm to allow GPR119 receptor stimulation. The cAMP level was determined according to the standard kit supplier protocol (PerkinElmer, cat. #TRF0264).
(§2) The stock solution of the Eu-cAMP tracer (Perkin Elmer, TRF0264) was diluted 1:100 in cAMP Detection Buffer (Perkin Elmer, TRF0264), making 2× working concentration and added to the assay plate, 10 μL per well. Assay plate was centrifuged 180 g, 1 sec. Then the assay plate was incubated for 60′ at room temperature on shaker, 250 rpm to allow cAMP detection. The TR-FRET signal was measured at Ex-340 nm/Em-615 and Ex-340 nm/Em-665 nm on the reader Tecan M1000. 0% of cAMP stimulation corresponds to the cells with DMSO only, 100% of cAMP stimulation corresponds to the cells with 10 uM Forskolin. The EC50 value defined as the concentration of the drug that gives half-maximal response, were calculated using GraphPad Prizm 5.0 software with forskolin was used as references at each test. Entries 1-17 in Table A-2 show the biological activity of certain representative compounds using the protocol as described above.
as §1, with “cell suspension,” for “cell suspension”
as §2, with “1-14” for “1-17”, “B-2” for “A-2”

[1] = Table B-2 entries 1-14, protocol as described (800 000 cells/mL, 5 uL/well), CHO-GPR119 cells
[2] = Table B-2 entries 15-39, modified protocol, 500 cells/well, read-out: % cAMP Max.
[3] = Table B-2 entries 15-39, modified protocol, 500 cells/well
[4] = Table A-2 entries 1-17, protocol as described, 100% = 10 uM Forskolin, read-out: % cAMP Max. relative to forscolin
[5] = Table A-2 entries 1-17, protocol as described (800 000 cells/mL, 5 uL/well), CHO-GPR119 cells
[6] = Table A-2 entries 18-25, modified protocol, 500 cells/well, read-out: % cAMP Max. relative to forscolin
[7] = Table A-2 entries 18-25, modified protocol, 500 cells/well
[8] = reference ligands in modified protocol, 500 cells/well

SMILES: [O-][S+]1COc2cc(-c3ccc(OCC4CCN(c5ncc(Cl)cn5)CC4)c(F)c3)ccc21 (stereo not shown) [Example B-16, 6-(4-((1-(5-Chloropyrimidin-2-yl)piperidin-4-yl)methoxy)-3-fluorophenyl)-2H-benzo[d][1,3]oxathiole 3-oxide]
EC50 [1]: 2.3 nM

SMILES: CC(C)c1cnc(N2CCC(COc3ccc(-c4ccc5c(c4)OCS5)cc3F)CC2)nc1 [Example B-38, 2-(4-((4-(Benzo[d][1,3]oxathiol-6-yl)-2-fluorophenoxy)methyl)piperidin-1-yl)-5-isopropylpyrimidine]
Emax [2]: 78%
EC50 [3]: 10.5 nM

SMILES: O=S1(=O)COc2cc(-c3ccc(OCc4cnc(C5CCN(c6ncc(Cl)cn6)CC5)s4)c(F)c3)ccc21 [Example A-58, 6-(4-((2-(1-(5-Chloropyrimidin-2-yl)piperidin-4-yl)thiazol-5-yl)methoxy)-3-fluorophenyl)-2H-benzo[d][1,3]oxathiole-3,3-dioxide]
Emax [4]: 73%
EC50 [5]: 96 nM

SMILES: CCc1ccnc(N2CCC(COc3ccc(-c4ccc5c(c4)OCS5)cc3F)CC2)n1 [Example B-26]
EC50 [1]: > 500 nM

SMILES: CC(C)(C)OC(=O)N1CCC(COc2ccc(-c3ccc4c(c3)OC[S+]4[O-])cc2F)CC1 (stereo not shown) [Example B-17, tert-Butyl 4-((2-fluoro-4-(3-oxido-1,3-benzoxathiol-6-yl)phenoxy)methyl) piperidine-1-carboxylate]
EC50 [1]: > 100 nM

SMILES: [O-][S@+]1COc2cc(-c3ccc(OCC4CCN(c5ncc(Cl)cn5)CC4)c(F)c3)ccc21 [Example B-32, (S)-6-(4-((1-(5-chloropyrimidin-2-yl)piperidin-4-yl)methoxy)-3-fluorophenyl)-2H-benzo[d][1,3]oxathiole 3-oxide]
EC50 [1]: 1.2 nM

SMILES: CCc1cnc(N2CCC(COc3cnc(-c4ccc5c(c4)OCS5(=O)=O)nc3)CC2)nc1 [Example A-76, 6-(5-((1-(5-Ethylpyrimidin-2-yl)piperidin-4-yl)methoxy)pyrimidin-2-yl)-2H-benzo[d][1,3]oxathiole 3,3-dioxide]
Emax [6]: 87%
EC50 [7]: 8.2 nM

SMILES: CC(C)(C)N1CCC(COc2ccc(-c3ccc4c(c3)OCS4(=O)=O)cc2F)CC1 [A-13]
Emax [4]: 75%
EC50 [5]: 833 nM

SMILES: COc1cnc(N2CCC(COc3ccc(-c4ccc5c(c4)OC[S+]5[O-])cc3F)CC2)nc1 (stereo not shown) [Example B-24, 6-(3-Fluoro-4-((1-(5-methoxypyrimidin-2-yl)piperidin-4-yl)methoxy)phenyl)-2H-benzo[d][1,3]oxathiole 3-oxide]
EC50 [1]: 2.3 nM

SMILES: CCc1cnc(N2CC[C@H](COc3ccc(-c4ccc5c(c4)OC[S@+]5[O-])cc3F)C2)nc1 [Example B-76]
Emax [2]: 80%
EC50 [3]: 20.5 nM

SMILES: COc1cnc(N2CCC(COc3ccc(-c4ccc5c(c4)OCS5)cc3F)CC2)nc1 [Example B-39, 2-(4-((4-(Benzo[d][1,3]oxathiol-6-yl)-2-fluorophenoxy)methyl)piperidin-1-yl)-5-methoxpyrimidine]
Emax [2]: 64%
EC50 [3]: 2900 nM

SMILES: CCc1cnc(N2CCC(COc3ccc(-c4ccc5c(c4)OCS5(=O)=O)cc3F)CC2)nc1 [A-24]
Emax [4]: 77%
EC50 [5]: 2.5 nM

SMILES: [O-][S@+]1COc2cc(-c3ccc(OC[C@H]4CCN(c5ncc(Cl)cn5)C4)c(F)c3)ccc21 [Example B-81, (S)-6-(4-(((S)-1-(5-Chloropyrimidin-2-yl)pyrrolidin-3-yl)methoxy)-3-fluorophenyl)-2H-benzo[d][1,3]oxathiole 3-oxide]
Emax [2]: 95%
EC50 [3]: 30 nM

SMILES: O=S1(=O)COc2ccc(-c3ccc(OCC4CCN(c5ncc(Cl)cn5)CC4)c(F)c3)cc21 [A-40]
Emax [4]: 65%
EC50 [5]: 369 nM

SMILES: CC(C)c1cnc(N2CCC(COc3ccc(-c4ccc5c(c4)OC[S+]5[O-])cc3F)CC2)nc1 (stereo not shown) [Example B-28, 6-(3-Fluoro-4-((1-(5-isopropylpyrimidin-2-yl)piperidin-4-yl)methoxy)phenyl)-2H-benzo[d][1,3]oxathiole 3-oxide]
EC50 [1]: 3 nM

More lines, now with the values ahead:

Emax [2]: 61%
EC50 [3]: 27.3 nM
SMILES: CCc1ccnc(N2CCC(COc3ccc(-c4ccc5c(c4)OC[S+]5[O-])cc3F)CC2)n1 (stereo not shown) [Example B-35, 6-(4-((1-(4-Ethylpyrimidin-2-yl)piperidin-4-yl)methoxy)-3-fluorophenyl)-2H-benzo[d][1,3]oxathiole 3-oxide]

EC50 [1]: > 500 nM
SMILES: [O-][S+]1COc2cc(-c3ccc(OCC4CCNCC4)c(F)c3)ccc21 (stereo not shown) [Example B-18]

Emax [4]: 77%
EC50 [5]: 5.4 nM
SMILES: CC(C)c1noc(N2CCC(COc3ccc(-c4ccc5c(c4)OCS5(=O)=O)cc3F)CC2)n1 [Example A-59, 6-(3-Fluoro-4-((1-(3-isopropyl-1,2,4-oxadiazol-5-yl)piperidin-4-yl)methoxy)phenyl)-2H-benzo[d][1,3]oxathiole 3,3-dioxide]

EC50 [1]: 4.8 nM
SMILES: CCc1cnc(N2CCC(COc3ccc(-c4ccc5c(c4)OC[S+]5[O-])cc3F)CC2)nc1 (stereo not shown) [Example B-19]

Emax [2]: 50%
EC50 [3]: 2000 nM
SMILES: CC(C)CC(=O)N1CCC(COc2ccc(-c3ccc4c(c3)OCS4)cc2F)CC1 [Example B-40, 1-(4-((4-(Benzo[d][1,3]oxathiol-6-yl)-2-fluorophenoxy)methyl)piperidin-1-yl)-3-methylbutan-1-one]

Emax [2]: 73%
EC50 [3]: 19.5 nM
SMILES: CCc1cnc(N2CCC(COc3ccc(-c4ccc5c(c4)OC[S@+]5[O-])cc3F)CC2)nc1 [Example B-52]

EC50 [8]: 592 nM
maximum cAMP stimulation [8]: 100%
SMILES: CCCCCCCC/C=C\CCCCCCCC(=O)NCCO [oleoyl ethanolamide, reference compound]

Emax [6]: 72%
EC50 [7]: 21.4 nM
SMILES: COc1cnc(N2CCC(COc3ccc(-c4ccc5c(c4)OCS5(=O)=O)cc3F)CC2)nc1 [Example A-67, 6-(3-Fluoro-4-(1-(5-methoxypyrimidin-2-yl)piperidin-4-yl)methoxy)phenyl-2H-benzo[d][1,3]oxathiole 3,3-dioxide]

Emax [4]: 65%
EC50 [5]: 4080 nM
SMILES: CC(C)[C@H](N)C(=O)N1CCC(COc2ccc(-c3ccc4c(c3)OCS4(=O)=O)cc2F)CC1 [A-19]

EC50 [1]: 52 nM
SMILES: [O-][S+]1COc2cc(-c3ccc(OCC4CCN(c5ccc(C(F)(F)F)cn5)CC4)c(F)c3)ccc21 (stereo not shown) [Example B-29, 6-(3-Fluoro-4-((1-(5-(trifluoromethyl)pyridin-2-yl)piperidin-4-yl)methoxy)phenyl)-2H-benzo[d][1,3]oxathiole 3-oxide]

Emax [6]: 90%
EC50 [7]: 58 nM
SMILES: CCc1ccnc(N2CC[C@H](COc3ccc(-c4ccc5c(c4)OCS5(=O)=O)cc3F)C2)n1 [Example A-92, (S)-6-(4-((1-(4-Ethylpyrimidin-2-yl)pyrrolidin-3-yl)methoxy)-3-fluorophenyl)-2H-benzo[d][1,3]oxathiole 3,3-dioxide]
